Source: the kinase profiling compilation of Christmann-Franck et al. (2016)

How the values were obtained:
Assay in all cases: Caliper, Mobility shift assay off-chip
[1] = system: RPS6KB1 (human), P23443 [T412E]; settings: compound 10.0 µM
[2] = biological target: CSNK2A1 (human) (UniProt P68400); settings: compound 10.0 µM
[3] = system: MAP2K1 (rabbit); settings: compound 10.0 µM; accession and sequence are those of the human protein
[4] = biological target: PRKAA1 (human) (UniProt Q13131); settings: compound 10.0 µM
[5] = biological target: MAP3K8 (human) (UniProt P41279); settings: compound 10.0 µM
[6] = biological target: BRAF (human) (UniProt P15056); settings: compound 10.0 µM
Sequence of BRAF (human) (P15056 whole entry, looked up): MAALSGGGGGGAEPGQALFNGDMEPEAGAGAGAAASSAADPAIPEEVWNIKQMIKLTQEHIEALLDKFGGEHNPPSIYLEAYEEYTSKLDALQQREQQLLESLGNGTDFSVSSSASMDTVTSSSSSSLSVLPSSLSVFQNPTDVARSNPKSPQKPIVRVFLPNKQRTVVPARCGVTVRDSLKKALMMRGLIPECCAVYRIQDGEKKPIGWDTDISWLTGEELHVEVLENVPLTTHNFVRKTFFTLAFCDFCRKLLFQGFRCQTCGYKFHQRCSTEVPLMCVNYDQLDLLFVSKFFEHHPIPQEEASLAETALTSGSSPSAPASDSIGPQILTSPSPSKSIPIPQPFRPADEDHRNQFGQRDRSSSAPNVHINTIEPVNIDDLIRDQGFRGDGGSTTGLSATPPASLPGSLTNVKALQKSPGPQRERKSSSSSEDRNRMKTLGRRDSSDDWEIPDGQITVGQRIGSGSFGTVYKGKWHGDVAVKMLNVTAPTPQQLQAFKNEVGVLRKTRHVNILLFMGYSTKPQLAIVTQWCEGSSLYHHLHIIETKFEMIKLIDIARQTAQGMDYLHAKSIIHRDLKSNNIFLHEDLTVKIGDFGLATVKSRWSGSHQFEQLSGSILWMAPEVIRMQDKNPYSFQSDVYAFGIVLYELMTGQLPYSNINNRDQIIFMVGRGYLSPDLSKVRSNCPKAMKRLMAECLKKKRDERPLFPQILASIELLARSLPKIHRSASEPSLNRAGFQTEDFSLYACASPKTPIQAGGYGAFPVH

[7] = biological target: AURKC (human) (UniProt Q9UQB9); settings: compound 10.0 µM
[8] = biological target: ERBB2 (human) (UniProt P04626); settings: compound 10.0 µM
[9] = biological target: MAP3K14 (human) (UniProt Q99558); settings: compound 10.0 µM
[10] = biological target: MARK4 (human) (UniProt Q96L34); settings: compound 10.0 µM
[11] = system: PHKG1 (rabbit); settings: compound 10.0 µM; accession and sequence are those of the human protein
[12] = biological target: NTRK3 (human) (UniProt Q16288); settings: compound 10.0 µM
[13] = biological target: PRKDC (human) (UniProt P78527); settings: compound 10.0 µM
[14] = system: DYRK1A (rat); settings: compound 10.0 µM; accession and sequence are those of the human protein
[15] = biological target: CDK4 (human) (UniProt P11802); settings: compound 10.0 µM
[16] = biological target: PAK1 (human) (UniProt Q13153); settings: compound 10.0 µM
[17] = biological target: CDC7 (human) (UniProt O00311); settings: compound 10.0 µM
Sequence of CDC7 (human) (O00311 whole entry, looked up): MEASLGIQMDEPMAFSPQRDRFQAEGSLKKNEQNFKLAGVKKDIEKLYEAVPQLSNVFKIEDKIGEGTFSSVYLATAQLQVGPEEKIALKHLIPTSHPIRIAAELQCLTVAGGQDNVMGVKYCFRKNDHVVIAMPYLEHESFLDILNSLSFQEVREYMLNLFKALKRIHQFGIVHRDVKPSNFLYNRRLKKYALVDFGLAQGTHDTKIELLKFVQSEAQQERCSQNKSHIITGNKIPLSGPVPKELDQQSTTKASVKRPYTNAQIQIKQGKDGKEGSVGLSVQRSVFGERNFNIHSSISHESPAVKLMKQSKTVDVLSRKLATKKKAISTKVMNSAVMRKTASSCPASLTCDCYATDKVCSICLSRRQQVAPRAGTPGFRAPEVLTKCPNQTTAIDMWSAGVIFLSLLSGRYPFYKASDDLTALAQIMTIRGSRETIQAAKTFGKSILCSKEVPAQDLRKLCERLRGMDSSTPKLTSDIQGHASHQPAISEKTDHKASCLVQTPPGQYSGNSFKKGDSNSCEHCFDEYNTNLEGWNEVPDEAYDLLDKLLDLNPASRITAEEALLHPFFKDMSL

[18] = system: CSNK1A1 (rat); settings: compound 10.0 µM; accession and sequence are those of the human protein
[19] = biological target: SGK1 (human) (UniProt O00141); settings: compound 10.0 µM
[20] = biological target: PBK (human) (UniProt Q96KB5); settings: compound 10.0 µM
[21] = biological target: ULK2 (human) (UniProt Q8IYT8)
Sequence of ULK2 (human) (Q8IYT8 whole entry, looked up): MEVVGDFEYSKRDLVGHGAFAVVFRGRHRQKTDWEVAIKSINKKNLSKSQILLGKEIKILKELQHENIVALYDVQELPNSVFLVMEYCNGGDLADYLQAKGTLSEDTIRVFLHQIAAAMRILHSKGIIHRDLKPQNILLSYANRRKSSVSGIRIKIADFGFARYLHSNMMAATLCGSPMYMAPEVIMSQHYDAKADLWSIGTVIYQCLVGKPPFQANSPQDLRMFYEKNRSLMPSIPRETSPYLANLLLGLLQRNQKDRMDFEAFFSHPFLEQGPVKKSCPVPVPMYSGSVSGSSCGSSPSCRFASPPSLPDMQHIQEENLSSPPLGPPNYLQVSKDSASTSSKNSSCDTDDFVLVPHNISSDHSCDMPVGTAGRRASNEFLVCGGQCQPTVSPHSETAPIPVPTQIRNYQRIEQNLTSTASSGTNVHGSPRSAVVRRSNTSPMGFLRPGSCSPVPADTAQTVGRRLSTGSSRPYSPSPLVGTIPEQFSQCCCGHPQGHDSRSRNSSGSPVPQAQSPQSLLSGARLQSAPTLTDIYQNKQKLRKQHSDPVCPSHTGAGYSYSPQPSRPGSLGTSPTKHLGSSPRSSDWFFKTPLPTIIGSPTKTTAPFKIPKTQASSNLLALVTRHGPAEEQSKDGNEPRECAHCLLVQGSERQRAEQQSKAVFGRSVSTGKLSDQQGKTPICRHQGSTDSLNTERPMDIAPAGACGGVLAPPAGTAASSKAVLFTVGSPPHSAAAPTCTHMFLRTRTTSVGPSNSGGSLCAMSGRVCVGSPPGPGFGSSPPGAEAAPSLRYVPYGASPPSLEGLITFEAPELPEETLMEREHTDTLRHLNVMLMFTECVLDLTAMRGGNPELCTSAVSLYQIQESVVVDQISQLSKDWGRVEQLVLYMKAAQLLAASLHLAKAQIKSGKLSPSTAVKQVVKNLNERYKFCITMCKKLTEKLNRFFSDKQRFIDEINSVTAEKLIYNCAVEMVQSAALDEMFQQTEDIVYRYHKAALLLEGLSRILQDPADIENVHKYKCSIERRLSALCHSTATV

[22] = biological target: MTOR (human) (UniProt P42345)
[23] = system: ABL1 (human), P00519 [Y253F]
[24] = biological target: MTOR FKBP1A (human) (UniProt P42345+P62942)
Sequence of MTOR FKBP1A (human) (P62942 whole entry, looked up, other chains not shown): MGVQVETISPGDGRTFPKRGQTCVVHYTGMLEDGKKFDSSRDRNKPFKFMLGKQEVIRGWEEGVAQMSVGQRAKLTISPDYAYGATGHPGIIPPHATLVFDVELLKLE

[25] = system: TEK (human), Q02763 [R849W]
Sequence of TEK (human), Q02763 [R849W] (Q02763 whole entry R849W, looked up): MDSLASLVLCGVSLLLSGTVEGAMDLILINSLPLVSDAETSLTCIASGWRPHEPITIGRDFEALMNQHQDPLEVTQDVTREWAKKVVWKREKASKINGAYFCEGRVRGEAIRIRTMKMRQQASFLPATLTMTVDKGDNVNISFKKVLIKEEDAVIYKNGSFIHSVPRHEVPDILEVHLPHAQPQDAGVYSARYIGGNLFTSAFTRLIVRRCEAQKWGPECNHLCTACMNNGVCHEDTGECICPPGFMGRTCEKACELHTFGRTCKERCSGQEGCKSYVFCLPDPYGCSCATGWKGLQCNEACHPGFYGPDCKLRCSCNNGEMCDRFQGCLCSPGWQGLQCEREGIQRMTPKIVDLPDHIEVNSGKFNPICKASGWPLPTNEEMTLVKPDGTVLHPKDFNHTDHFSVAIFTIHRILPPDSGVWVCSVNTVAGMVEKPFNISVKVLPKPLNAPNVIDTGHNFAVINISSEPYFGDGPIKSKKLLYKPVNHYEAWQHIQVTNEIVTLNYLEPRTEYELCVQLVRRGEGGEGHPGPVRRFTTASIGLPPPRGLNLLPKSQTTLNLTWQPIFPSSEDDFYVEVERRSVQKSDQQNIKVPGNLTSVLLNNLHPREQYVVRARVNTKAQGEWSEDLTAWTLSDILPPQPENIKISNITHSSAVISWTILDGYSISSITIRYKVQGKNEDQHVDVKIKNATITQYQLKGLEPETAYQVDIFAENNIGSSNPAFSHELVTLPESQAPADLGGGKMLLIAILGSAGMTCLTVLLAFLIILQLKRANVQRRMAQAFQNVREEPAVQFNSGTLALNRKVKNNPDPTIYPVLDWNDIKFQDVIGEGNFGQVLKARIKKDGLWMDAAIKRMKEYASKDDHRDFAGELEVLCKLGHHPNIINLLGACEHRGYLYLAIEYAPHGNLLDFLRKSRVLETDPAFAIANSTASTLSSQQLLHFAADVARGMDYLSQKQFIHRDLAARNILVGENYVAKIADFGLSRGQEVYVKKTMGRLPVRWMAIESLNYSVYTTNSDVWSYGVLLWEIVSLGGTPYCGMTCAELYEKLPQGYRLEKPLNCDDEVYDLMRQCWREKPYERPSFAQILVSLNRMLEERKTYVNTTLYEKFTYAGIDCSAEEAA

[26] = system: MAP2K4 (mouse); settings: compound 10.0 µM; accession and sequence are those of the human protein
[27] = biological target: TEC (human) (UniProt P42680); settings: compound 10.0 µM
[28] = biological target: PIK3CD (human) (UniProt O00329); settings: compound 1.0 µM
Sequence of PIK3CD (human) (O00329 whole entry, looked up): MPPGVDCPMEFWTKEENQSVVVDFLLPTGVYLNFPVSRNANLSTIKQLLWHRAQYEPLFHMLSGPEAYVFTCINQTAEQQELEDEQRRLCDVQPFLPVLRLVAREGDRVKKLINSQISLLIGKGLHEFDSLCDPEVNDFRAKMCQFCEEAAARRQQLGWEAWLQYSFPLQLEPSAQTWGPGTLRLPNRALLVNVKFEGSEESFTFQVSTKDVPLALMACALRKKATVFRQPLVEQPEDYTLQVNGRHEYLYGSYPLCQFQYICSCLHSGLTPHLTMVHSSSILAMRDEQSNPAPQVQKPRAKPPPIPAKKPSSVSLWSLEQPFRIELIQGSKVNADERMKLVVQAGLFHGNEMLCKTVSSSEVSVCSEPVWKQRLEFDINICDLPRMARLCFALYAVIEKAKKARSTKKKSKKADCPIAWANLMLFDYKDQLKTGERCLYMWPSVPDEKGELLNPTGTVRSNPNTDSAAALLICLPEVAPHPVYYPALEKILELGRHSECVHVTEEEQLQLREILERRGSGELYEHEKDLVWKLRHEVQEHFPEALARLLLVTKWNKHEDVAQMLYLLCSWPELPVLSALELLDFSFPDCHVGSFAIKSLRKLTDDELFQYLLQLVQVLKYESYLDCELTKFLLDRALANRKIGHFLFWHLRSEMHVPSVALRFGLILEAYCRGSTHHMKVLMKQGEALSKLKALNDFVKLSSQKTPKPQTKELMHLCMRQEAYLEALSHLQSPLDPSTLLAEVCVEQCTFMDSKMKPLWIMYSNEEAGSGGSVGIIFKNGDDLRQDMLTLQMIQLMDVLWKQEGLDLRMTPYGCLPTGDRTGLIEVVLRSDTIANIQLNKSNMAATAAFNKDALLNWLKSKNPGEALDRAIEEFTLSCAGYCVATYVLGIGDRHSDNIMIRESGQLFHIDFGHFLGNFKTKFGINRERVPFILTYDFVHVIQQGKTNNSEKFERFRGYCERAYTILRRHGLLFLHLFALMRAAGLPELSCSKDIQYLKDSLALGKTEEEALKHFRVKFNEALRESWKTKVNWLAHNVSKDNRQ

[29] = system: ABL1 (mouse); settings: compound 1.0 µM; accession and sequence are those of the human protein
[30] = system: LYN (mouse); settings: compound 1.0 µM; accession and sequence are those of the human protein
[31] = biological target: MYLK (human) (UniProt Q15746); settings: compound 1.0 µM
[32] = biological target: MAPK3 (human) (UniProt P27361); settings: compound 1.0 µM
[33] = system: ABL2 (mouse); settings: compound 1.0 µM; accession and sequence are those of the human protein
[34] = biological target: PIK3CB (human) (UniProt P42338); settings: compound 1.0 µM
[35] = biological target: CSNK1A1 (yeast) (UniProt P48729); settings: compound 1.0 µM; accession and sequence are those of the human protein
[36] = biological target: PIK3CG (human) (UniProt P48736); settings: compound 1.0 µM
[37] = biological target: CSNK1A1 (human) (UniProt P48729); settings: compound 1.0 µM

Sequence of CSNK2A1 (human) (P68400 whole entry, looked up): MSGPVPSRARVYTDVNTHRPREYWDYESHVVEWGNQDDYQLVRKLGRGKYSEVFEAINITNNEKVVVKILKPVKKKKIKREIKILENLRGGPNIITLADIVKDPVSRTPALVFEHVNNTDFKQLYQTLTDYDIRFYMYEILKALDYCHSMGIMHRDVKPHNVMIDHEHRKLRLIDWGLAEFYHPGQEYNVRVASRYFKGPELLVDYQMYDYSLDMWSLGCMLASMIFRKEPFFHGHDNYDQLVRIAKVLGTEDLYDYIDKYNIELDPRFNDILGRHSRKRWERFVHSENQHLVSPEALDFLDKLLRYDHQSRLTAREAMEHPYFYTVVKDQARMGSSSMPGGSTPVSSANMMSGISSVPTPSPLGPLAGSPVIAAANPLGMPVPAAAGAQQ

With `CC(C)(C)c1nc2c3ccc(F)cc3c3c(=O)[nH]ccc3c2[nH]1` the residual activity [1] was 11%, the residual activity [2] was 71% and the residual activity [3] was 30%. For the same molecule, the residual activity [4] was 5%, the residual activity [5] was 87% and the residual activity [6] was 114%. It also gave a residual activity [7] of 4%, a residual activity [8] of 130% and a residual activity [9] of 92%. The residual activity [10] was 25%, the residual activity [11] was 6% and the residual activity [12] was 2%. For the same molecule, the residual activity [13] was 97%, the residual activity [14] was 64% and the residual activity [15] was 21%. For the same molecule, the residual activity [16] was 73%, the residual activity [17] was 70% and the residual activity [18] was 59%. It also gave a residual activity [19] of 3% and a residual activity [20] of 10%.
Molecule `C[C@@H](Nc1nc2c(C#CC3CC3)c[nH]c(=O)c2c2cc(-c3cn[nH]c3)ccc12)C(C)(C)C` has a residual activity ([21]; compound 1.0 µM) of 30%, a residual activity ([22]; compound 1.0 µM) of 89% and a residual activity ([23]; compound 1.0 µM) of 60%. It also gave a residual activity ([24]; compound 1.0 µM) of 94% and a residual activity ([25]; compound 1.0 µM) of 74%.
For `O=C(N[C@@H](COc1ccc2[nH]c(=O)[nH]c2c1)c1ccccc1)c1cccn(Cc2ccc(F)c(F)c2)c1=O`, the residual activity ([21]; compound 10.0 µM) was 110%, the residual activity ([22]; compound 10.0 µM) was 102% and the residual activity ([23]; compound 10.0 µM) was 110%. For the same molecule, the residual activity ([24]; compound 10.0 µM) was 103%, the residual activity [26] was 112% and the residual activity ([25]; compound 10.0 µM) was 104%. It also gave a residual activity [27] of 91%.
`Cc1n[nH]c2c1c(=O)n(CCCN)c1ccc(Cl)cc21` gave a residual activity [28] of 95%, a residual activity [29] of 98% and a residual activity [30] of 69%. For the same molecule, the residual activity [31] was 68%, the residual activity [32] was 89% and the residual activity [33] was 110%. For the same molecule, the residual activity [34] was 100%, the residual activity [35] was 69% and the residual activity [36] was 116%. It also gave a residual activity [37] of 111%.
